Results taken from patent US8080668B2, “Thiazoles derivatives as AMPK activator” (Dr. Reddy's Laboratories Limited, priority 2005, dated 2011).

How the values were obtained:
AMPK [1] = assay: AMPK activation potential, cell based ELISA with p-AMPK specific antibody, Hep G2 hepatoma liver cells; conditions: 10 μM compound, 24 hours; normalized to metformin at 2 mM = 100%; HepG2 cells
Description: (§1) The AMPK activation potential percentages in this specification are calculated with respect to the already known AMPK activator metformin. The percentages are obtained by normalizing the values obtained at concentrations in the range of 2 μM to 10 μM with that of metformin by considering the values obtained for metformin at 2 mM concentrations as 100%. However, the AMPK activation potential percentages can also be calculated with respect to other known AMPK activators also.
(§2) AMPK activation potential of the compounds of formula (I) was evaluated using a cell based ELISA approach. L6 muscle skeletal muscle and Hep G2 hepatoma liver cells were cultured for 48 hours prior to drug addition at various concentrations. Twenty four hours later, the cells were fixed and the ELISA plate developed following standard protocol using p-AMPK specific antibody.
(§3) Various cell lines such as HepG2 and L6 were revived from glycerol stocks (ATCC). The cells were maintained in a T 75 culture flask-containing medium (DMEM +10% fetal calf serum). On reaching a confluence of 70% to 80%, the cells were seeded in a 96 well plate at a density of 10×10^3 cells per well in DMEM +10% FCS medium. The plates were then incubated at 37° C. with 5% CO2 for 48 hours. Various concentrations of drugs were prepared in DMSO and diluted to required concentration with the medium and incubated at 37° C. with 5% CO2 for 24 hours. Cells were fixed with 4% formaldehyde in PBS for 30 minutes at 25-35° C. and washed three times with PBS containing 0.1% Triton X-100. Endogenous peroxidase was quenched with 0.6% H2O2 in PBS-T for 30 minutes and washed three times in PBS-T. The cells were then blocked with 10% FCS in PBS-T for 1hour. The cells were incubated for 8-12 hours with various concentrations of primary antibody in PBS-T containing 5% BSA at 4° C., followed by washing three times with PBS-T for 5 minutes and incubating with a secondary antibody (HRP conjugated 1:500 in PBS-T with 5% BSA for 1 hour at 25-35° C. The cells were washed three times with PBS-T for 5 minutes and twice with PBS and incubated with 100 μl TMB/H2O2 color developing solution for 15 minutes. The reaction was stopped with 50 μl of 1M H2SO4. The plate was then read at 460 nm using ELISA plate reader.
(§4) AMPK activation percentages for various compounds are given in the table below (AMPK activation potential percentages are obtained by normalizing the values obtained at 10 μM concentration with that of metformin by considering the values obtained for metformin at 2 mM concentrations as 100%).

AMPK [2] = assay: AMPK activation potential, cell based ELISA with p-AMPK specific antibody, L6 skeletal muscle cells; conditions: 10 μM compound, 24 hours, normalized to metformin at 2 mM = 100%
Description: as §1, §2, §3, §4

| melting point | SMILES | AMPK % activation (at 10 μM) HepG-2 hepatoma liver cells (AMPK [1]) | AMPK % activation (at 10 μM) L6 skeletal muscle cells (AMPK [2]) |
| --- | --- | --- | --- |
| – | O=C(O)c1csc(Nc2ccc(-c3csc(-c4ccc(C(F)(F)F)cc4)n3)cc2)n1 [Example 2-d, 2-{4-[2-(4-Trifluoromethyl-phenyl)-thiazol-4-yl]-phenylamino}-thiazole-4-carboxylic acid] | 83.89% | 109.70% |
| – | Cc1ccc(Nc2nc(CC(=O)O)cs2)cc1 [Example 1-d, (2-p-Tolylamino-thiazol-4-yl)-acetic acid] | 97.11% | 99.55% |
| – | O=C(O)Cc1csc(Nc2ccc(Cl)cc2)n1 [Example 1-b, [2-(4-Chloro-phenylamino)-thiazol-4-yl]-acetic acid] | 87.11% | 102.63% |
| 283 to 286 °C | O=C(O)c1csc(Nc2ccc(-c3csc(-c4ccccc4)n3)cc2)n1 [Example 2-c, 2-[4-(2-Phenyl-thiazol-4-yl)-phenylamino]-thiazole-4-carboxylic acid] | 96.35% | 102.19% |
| 158 to 159 °C | O=C(O)Cc1csc(Nc2ccc(-c3ccccc3)cc2)n1 [Example 1-o, [2-(Biphenyl-4-ylamino)-thiazol-4-yl]-acetic acid] | – | – |
| 171 to 174 °C | O=C(O)Cc1csc(Nc2ccc(-c3csc(-c4ccc(C(F)(F)F)cc4)n3)cc2)n1 [Example 1-l, (2-{4-[2-(4-Trifluoromethyl-phenyl)-thiazol-4-yl]-phenylamino}-thiazol-4-yl)-acetic acid] | 85.27% | 104.37% |
| 148 to 150 °C | O=C(O)Cc1csc(Nc2ccc(-c3csc(-c4ccccc4)n3)cc2)n1 [Example 1-m, {2-[4-(2-Phenyl-thiazol-4-yl)-phenylamino]-thiazol-4-yl}-acetic acid] | – | – |
| – | O=C(O)c1csc(Nc2ccc(Cl)cc2)n1 [Example 2-a, 2-(4-Chloro-phenylamino)-thiazole-4-carboxylic acid] | 97.26% | 94.90% |
| 191 to 192 °C | O=C(O)Cc1csc(Nc2ccc(Sc3ccc(Cl)cc3)cc2)n1 [Example 1-j, {2-[4-(4-Chloro-phenylsulfanyl)-phenylamino]-thiazol-4-yl}-acetic acid] | 97.56% | 97.09% |
| – | CCCCc1ccc(Nc2nc(CC(=O)O)cs2)cc1 [Example 1-p, [2-(4-Butyl-phenylamino)-thiazol-4-yl]-acetic acid] | 75.77% | 102.26% |
| 116 to 118 °C | O=C(O)Cc1csc(Nc2ccc(OCc3ccccc3)cc2)n1 [Example 1-f, [2-(4-Benzyloxy-phenylamino)-thiazol-4-yl]-acetic acid] | 87.76% | 88.04% |
| – | O=C(O)Cc1csc(Nc2ccc(OC(F)(F)F)cc2)n1 [Example 1-e, [2-(4-Trifluoromethoxy-phenylamino)-thiazol-4-yl]-acetic acid] | 100.29% | 94.09% |
| 198 to 199 °C | O=C(O)Cc1csc(Nc2ccc(N3CCOCC3)cc2)n1 [Example 1-i, [2-(4-Morpholin-4-yl-phenylamino)-thiazol-4-yl]-acetic acid] | 69.71% | 109.09% |
| – | O=C(O)Cc1csc(Nc2ccc(F)cc2)n1 [Example 1-a, [2-(4-Fluoro-phenylamino)-thiazol-4-yl]-acetic acid] | 97.9% | 81% |
| 192 to 193 °C | O=C(O)Cc1csc(Nc2ccc(Oc3ccc(Cl)cc3)cc2)n1 [Example 1-k, {2-[4-(4-Chloro-phenoxy)-phenylamino]-thiazol-4-yl}-acetic acid] | 97.56% | 96.19% |
| – | O=C(O)CCc1csc(Nc2ccc(C(F)(F)F)cc2)n1 [Example 3-e, 3-[2-(4-Trifluoromethyl-phenylamino)-thiazol-4-yl]-propionic acid] | 110.47% | 94.72% |
| 290 to 292 °C | Cc1nc(-c2ccc(Nc3nc(C(=O)O)cs3)cc2)cs1 [Example 2-b, 2-[4-(2-Methyl-thiazol-4-yl)-phenylamino]-thiazole-4-carboxylic acid] | – | – |
| 153 to 156 °C | Cc1nc(-c2ccc(Nc3nc(CC(=O)O)cs3)cc2)cs1 [Example 1-n, {2-[4-(2-Methyl-thiazol-4-yl)-phenylamino]-thiazol-4-yl}-acetic acid] | 98.42% | 83.62% |
| – | O=C(O)Cc1csc(Nc2ccc(O)cc2)n1 [Example 1-s, [2-(4-Hydroxy-phenylamino)-thiazol-4-yl]-acetic acid] | 86.08% | 92.35% |
